Laboratory results published in US10925858B2, “S-nitrosoglutathione (GSNO) and GSNO reductase inhibitors for use in therapy” (MUSC FOUNDATION FOR RESEARCH DEVELOPMENT, priority 2017, dated 2021).

Key:
[1] = system: 3-nitrotyrosine; assay: Nitrotyrosine levels in spinal cords of EAE mice, Western; assay type: in vivo, C57BL/6J mice; settings: day 24 post-immunization; GSNO 1 mg/kg/day or FeTPPS 30 mg/kg/day i.p.
Procedure: Western immunoblot analysis was performed by standard method using 50 μg of cell lysates. Following the SDS-PAGE electrophoresis, proteins were transferred from the gel onto the Polyvinylidene fluoride membrane (GE Healthcare Life Sciences, Marlborough, Mass.). […]
EAE was induced as described previously (Nath et al., 2009). […] The group size was determined by power analysis based on our previous data (Nadi et al., 2009). […] Clinical signs of EAE were scored in animal facility in a blinded fashion to experimenter between 2 and 4 pm daily by examiners blinded to experimental treatments using the following scale: 0=no clinical signs of disease; 1=limp tail or waddling gait with tail tonicity; 2=waddling gait with limp tail (ataxia); 2.5=ataxia with partial limb paralysis; 3=full paralysis of one limb; 3.5=full paralysis of one limb with partial paralysis of second limb; 4=full paralysis of two limbs; 4.5=moribund stage; 5=death. […]

[2] = system: mononuclear cells; assay: H&E staining, spinal cord infiltration of mononuclear cells in EAE mice; assay type: in vivo, C57BL/6 mice; settings: 1 mg/kg/day
Procedure: Female C57BL/6 mice of 8-12 weeks of age, purchased from Jackson Laboratory, were provided with food and water ad libitum and were kept in pathogen free animal care facility of Medical University of South Carolina (MUSC) throughout the study. All procedures were conducted in accordance with accepted standards of humane care as approved by the Institutional Animal Care and Use Committee (Approved number: AR #1644). EAE was induced as described previously (Nath et al., 2009). Briefly, mice were immunized subcutaneously in the flank regions with MOG35-55 peptide (MOG; 200 μg; Peptide International) emulsified (1:1) in 100 ul complete Freund's adjuvant (CFA) on day 0 and day 7. Additionally, 300 ng of Pertussis toxin (Sigma-Aldrich, St. Louis, Mo.) was given on day 0 and day 2 by i.p. injection. […] Clinical signs of EAE were scored by examiners blinded to experimental treatments using the following scale: 0=no clinical signs of disease; 1=piloerection and sluggish; 2=limp tail (ataxia); 2.5=ataxia with partial hind limb paralysis; 3=full paralysis of hind limb; 3.5=full paralysis of hind limb with paralysis of one fore limb; 4=full paralysis of two limbs; 4.5=moribund stage; 5=death. […]
Tissue samples were embedded in paraffin block and sectioned transversely (5 μm-thick). […] For the quantitation of infiltrates, the digital images were analyzed by ImageJ (NIH, Bethesda, Md.). […]

Cl.O=S(=O)([O-])c1ccc(-c2c3nc(c(-c4ccc(S(=O)(=O)O)cc4)c4ccc([nH]4)c(-c4ccc(S(=O)(=O)O)cc4)c4nc(c(-c5ccc(S(=O)(=O)O)cc5)c5ccc2[nH]5)C=C4)C=C3)cc1.[Fe] [FeTPPS, 5,10,15,20-Tetrakis(4-sulfonatophenyl)porphyrinato Iron (III), Cl, reference compound]
EAE-induced nitrotyrosine levels in spinal cords [1]: significantly decreased

Cc1cc(C(N)=O)ccc1-n1c(CCC(=O)O)ccc1-c1ccc(-n2ccnc2)cc1 [N6022, reference compound]
spinal cord infiltration of mononuclear cells [2]: significantly reduced

N[C@@H](CCC(=O)N[C@@H](CSN=O)C(=O)NCC(=O)O)C(=O)O [GSNO, S-nitrosoglutathione]
EAE-induced nitrotyrosine levels in spinal cords [1]: significantly decreased | spinal cord infiltration of mononuclear cells [2]: reduced
